From the supplement of paper PMC10307832

What was measured:
Assay in all cases: relative viability (nuclei count vs DMSO), 5 days (fraction); higher = more cells survive
NCI-H2170 = tested on: NCI-H2170
Procedure, shortened: (§1)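 The day after seeding in 1536-well plates, lung cancer cell lines were treated by pin tool with a single drug, or with a fixed anchor-drug dose together with five library-drug doses (not always all listed) in √10 steps. After 5 days, a combined fix-and-stain solution (final 0.05% Triton X-100, 1% formaldehyde, 1 ug/ml Hoechst) was added. Nuclei counted on 4× images gave relative viability as treated counts over vehicle counts, reported as the median of duplicate plates.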

NCI-H2347 = tested on: NCI-H2347
Procedure, shortened: as §1

NCI-H2405 = tested on: NCI-H2405
Procedure, shortened: as §1

NCI-H3122 = tested on: NCI-H3122
Procedure, shortened: as §1

NCI-H322M = tested on: NCI-H322M
Procedure, shortened: as §1

NCI-H441 = tested on: NCI-H441
Procedure, shortened: as §1

NCI-H520 = tested on: NCI-H520
Procedure, shortened: as §1

NCI-H647 = tested on: NCI-H647
Procedure, shortened: as §1

PC-14 = tested on: PC-14
Procedure, shortened: as §1

SW 900 = tested on: SW 900
Procedure, shortened: as §1

UMC-11 = tested on: UMC-11
Procedure, shortened: as §1

## CC(=O)O[C@@]12CO[C@@H]1C[C@H](O)[C@@]1(C)C(=O)[C@H](O)C3=C(C)[C@@H](OC(=O)[C@H](O)[C@@H](NC(=O)OC(C)(C)C)c4ccccc4)C[C@@](O)([C@@H](OC(=O)c4ccccc4)[C@H]21)C3(C)C [Docetaxel] + O=C(CCCCCCC(=O)Nc1ccccc1)NO [Vorinostat] (partner 1 µM)
NCI-H2170; first compound 0.006325 µM
  relative viability: 0.162
NCI-H2170; first compound 0.02 µM
  relative viability: 0.136
NCI-H2347; first compound 0.0002 µM
  relative viability: 0.726
NCI-H2347; first compound 0.000632 µM
  relative viability: 0.554
NCI-H2347; first compound 0.002 µM
  relative viability: 0.418
NCI-H2347; first compound 0.006325 µM
  relative viability: 0.434
NCI-H2347; first compound 0.02 µM
  relative viability: 0.33
NCI-H2405; first compound 0.0002 µM
  relative viability: 0.839
NCI-H2405; first compound 0.000632 µM
  relative viability: 0.567
NCI-H2405; first compound 0.002 µM
  relative viability: 0.546
NCI-H2405; first compound 0.006325 µM
  relative viability: 0.394
NCI-H2405; first compound 0.02 µM
  relative viability: 0.335
NCI-H3122; first compound 0.0002 µM
  relative viability: 0.909
NCI-H3122; first compound 0.000632 µM
  relative viability: 0.95
NCI-H3122; first compound 0.002 µM
  relative viability: 0.487
NCI-H3122; first compound 0.006325 µM
  relative viability: 0.22
NCI-H3122; first compound 0.02 µM
  relative viability: 0.126
NCI-H322M; first compound 0.0002 µM
  relative viability: 0.801
NCI-H322M; first compound 0.000632 µM
  relative viability: 0.843
NCI-H322M; first compound 0.002 µM
  relative viability: 0.906
NCI-H322M; first compound 0.006325 µM
  relative viability: 0.711
NCI-H322M; first compound 0.02 µM
  relative viability: 0.481
NCI-H441; first compound 0.0002 µM
  relative viability: 0.713
NCI-H441; first compound 0.000632 µM
  relative viability: 0.53
NCI-H441; first compound 0.002 µM
  relative viability: 0.223
NCI-H441; first compound 0.006325 µM
  relative viability: 0.219
NCI-H441; first compound 0.02 µM
  relative viability: 0.165
NCI-H520; first compound 0.0002 µM
  relative viability: 0.714
NCI-H520; first compound 0.000632 µM
  relative viability: 0.463
NCI-H520; first compound 0.002 µM
  relative viability: 0.281
NCI-H520; first compound 0.006325 µM
  relative viability: 0.187
NCI-H520; first compound 0.02 µM
  relative viability: 0.158
NCI-H647; first compound 0.0002 µM
  relative viability: 0.486
NCI-H647; first compound 0.000632 µM
  relative viability: 0.32
NCI-H647; first compound 0.002 µM
  relative viability: 0.196
NCI-H647; first compound 0.006325 µM
  relative viability: 0.14
NCI-H647; first compound 0.02 µM
  relative viability: 0.082
PC-14; first compound 0.0002 µM
  relative viability: 0.725
PC-14; first compound 0.000632 µM
  relative viability: 0.245
PC-14; first compound 0.002 µM
  relative viability: 0.079
PC-14; first compound 0.006325 µM
  relative viability: 0.0579
PC-14; first compound 0.02 µM
  relative viability: 0.0282
SW 900; first compound 0.0002 µM
  relative viability: 0.523
SW 900; first compound 0.000632 µM
  relative viability: 0.284
SW 900; first compound 0.002 µM
  relative viability: 0.277
SW 900; first compound 0.006325 µM
  relative viability: 0.203
SW 900; first compound 0.02 µM
  relative viability: 0.235
UMC-11; first compound 0.0002 µM
  relative viability: 0.402
UMC-11; first compound 0.000632 µM
  relative viability: 0.287
UMC-11; first compound 0.002 µM
  relative viability: 0.155
UMC-11; first compound 0.006325 µM
  relative viability: 0.203
UMC-11; first compound 0.02 µM
  relative viability: 0.108
